Patent publication US8106004B2, “Methods of inhibiting tumor cell aggressiveness using the microenvironment of human embryonic stem cells” (Children's Memorial Hospital, priority 2006, dated 2012)

Assays:
[1] = test system: MDA-MB-231 breast carcinoma cells; assay: In vivo tumor cell proliferation-to-apoptosis ratio (Ki67/TUNEL), MDA-MB-231 derived tumors; settings: MDA-MB-231 treated before injection into mouse
Text: (A) In vivo tumor formation in a mouse injected with MDA-MB-231 cells pre-exposed for 3 days to either a control matrix (Matrigel) or a matrix conditioned by hESCs (H9 CMTX) (n=10) (B) C81-61 cells, transfected with either an empty vector or a Nodal expression construct (n=5), and (C) MDA-MB-231 cells treated with either MO^Control or MO^Nodal (n=10). […] (D) The ratio of tumor cell proliferation to apoptosis for C8161 and MDA-MB-231 derived tumors, determined by immunohistochemical staining for Ki67 and terminal deoxynucleotidyl transferase biotin-dUTP nick-end labeling (TUNEL). Prior to injection into a mouse, C8161 and MDA-MB-231 cells were cultured for 3 days on control or hESC conditioned (H9 CMTX) matrices, or treated with MO^Nodal to knock down Nodal expression. […] (E) Immunohistochemical analysis of Ki67 expression (red/brown) and TUNEL staining in orthotopic melanoma (C8161) and breast carcinoma (MDA-MB-231) tumors. […] Proliferation is indicated by Ki67 staining and apoptotic nuclei were detected with confocal microscopy as red staining localized to the nuclei of apoptotic C8161 or MDA-MB-231 cells. […]
In order to establish a mechanism by which exposure to the hESC microenvironment abrogates tumorigenicity, the effects of this treatment on the in vivo tumor cell proliferation-to-apoptosis ratio were analyzed. […]

C8161 cells = assay: Soft agar / anchorage independent growth assay, C8161 cells; format: cell-based, human; settings: C8161 treated with anti-Nodal Morpholino
Description: An in vitro colony forming assay was used to analyze colony-forming ability of poorly aggressive C81-61 cells, aggressive C8161 cells, C8161 cells treated with MO^Nodal and C8161 cells treated with MO^Nodal and rescued with recombinant Nodal (100 ng/mL). The assay was conducted using 50,000 cells suspended in 0.35% agarose in RPMI containing 10% serum, which were plated into 6-well dishes on 0.5% agar in the same medium. Colonies grew, and pictures were taken at day 7. After 2 weeks, colonies were stained with Crystal Violet and counted.
The derivation and phenotypic characteristics of the human melanoma cell lines have been previously described. Seftor, et. al., 2002, Clin. Experim. Metastas. 19:233-246; Seftor, et. al., 2005 Cancer Res. 65:10164-10169. The melanoma cell lines are maintained in RPMI 1640 medium (Invitrogen) supplemented with 10% fetal bovine serum (FBS, Gemini Bioproducts) and 0.1% gentamycin sulfate with the exception of C81-61 cells which are maintained in Ham's FIO medium supplemented with 15% FBS, 1X Mito+ (BD Bioscience) and gentamycin sulfate. Normal human melanocytes are purchased (Cascade Biologics) or isolated from neonatal foreskins. Seftor, et. al., 2005. A single cell suspension is prepared, added to plastic flasks for the adherence of melanocytes and the cells propagated in Medium 254 with Human Melanocyte Growth Supplement (Cascade Biologics) including, 100 units/ml penicillin, 100 μg/ml streptomycin, and 250 ng/mL amphotericin B. The human embryonic stem cell lines are cultured as previously described. Thomson, et. al., 1998, Science 282:1145-1147. Briefly, cells are grown in 6-well plates precoated with 0.1% porcine gelatin and containing 1.9×10^5 irradiated mouse embryonic fibroblasts (strain CF-1; ATCC) per well. The cells are maintained in medium containing DMEM/F12 (1:1), 20% knock-out serum replacement, non-essential minimal amino acids, L-glutamine (Invitrogen), […], and 4 ng/ml FGF-2 (R&D Systems), and are split with collagenase (1 mg/ml) before the colonies begin to overlap. The cultures are determined to be free of mycoplasma contamination using a PCR-based assay (Roche). The normal human neonatal epidermal melanocytes (HEMn-LP; Cascade Biologics, Portland Oreg.), myoepithelial cells (Hs 578 Bst; American Type Culture Collection (ATCC), Manassas, Va.) and primary mammary epithelial cells (HMEpC; Cell Applications Inc., San Diego Calif.) were maintained as per distributor instructions. Live umbilical cord blood stem cells (SC00125; New Jersey Stem Cell Resource at Coriell Institute for Medical Research) amniotic fluid derived stem cells (GM00473, GM00957A) and adult bone marrow derived mesenchymal stem cells (Stem Cell Technologies, Vancouver BC, Canada) were maintained under the recommended conditions. The HTR-8/SVneo is a well characterized immortalized human extravillous cytotrophoblast cell line, and was maintained as previously described Graham et al., 1993, Exp. Cell Res. 206:204-211. […] The expression vector for wild type Nodal was kindly provided by Dr. Daniel Constam (Swiss Institute for Experimental Cancer Research (ISREC), Epalinges, Switzerland) and was transfected into C81-61 cells as previously described. Le Good et al., 2005, Curr. Biol. 15:31-36. […]

Which results are given for “MO^Nodal: FITC-conjugated anti-sense Morpholino to Nodal, 5′-AAGCAGCACCTCCAGCCCTTATATC-3′ [SEQ ID NO: 20] (all phosphorodiamidate morpholino (PMO); FITC conjugated, position not given here)”?
ratio of proliferation to apoptosis [1]: decreased; reduction of colony formation (C8161 cells; after 2 weeks, n=16, p<0.001): 57%; ability to undergo anchorage-independent growth (C8161 cells; soft agar): significantly diminished
